Reference: the NIST ThermoML archive (doi:10.1016/j.jct.2009.05.006)

Assays:
[1] = excess molar enthalpy (molar enthalpy of mixing); xn = mol fraction of the nth substance listed; conditions: 298.15 K, 101 kPa, Liquid, Calvet calorimetry
[2] = xn = mol fraction of the nth substance listed; conditions: 298.15 K, 101 kPa, Liquid, Vibrating tube method

BrCCBr [1,2-dibromoethane] + CCCCOC(C)=O
[1]
Conditions | excess molar enthalpy [kcal/mol]
x2 = 0.0399 | -0.000239
x2 = 0.0964 | -0.000717
x2 = 0.1625 | -0.00382
x2 = 0.2339 | -0.0103
x2 = 0.3039 | -0.0174
x2 = 0.3717 | -0.0246
x2 = 0.4237 | -0.0308
x2 = 0.4749 | -0.0351
x2 = 0.5228 | -0.0363
x2 = 0.5985 | -0.0366
x2 = 0.6854 | -0.0332
x2 = 0.7854 | -0.0277
x2 = 0.8989 | -0.0148

BrCCCCBr [1,4-dibromobutane] + CCCCOC(=O)CC
Conditions | excess molar enthalpy [kcal/mol] | mass density [kg/m3]
[1], x2 = 0.0509 | 0.00574 | –
[1], x2 = 0.1183 | 0.00621 | –
[1], x2 = 0.196 | 0.00287 | –
[1], x2 = 0.275 | -0.00239 | –
[1], x2 = 0.3518 | -0.00765 | –
[1], x2 = 0.4473 | -0.0131 | –
[1], x2 = 0.4843 | -0.0151 | –
[1], x2 = 0.5517 | -0.0163 | –
[1], x2 = 0.6323 | -0.017 | –
[1], x2 = 0.7319 | -0.016 | –
[1], x2 = 0.8302 | -0.0124 | –
[1], x2 = 0.9193 | -0.0086 | –
[2], x1 = 0.0993 | – | 1702.4
[2], x1 = 0.1484 | – | 1647.38
[2], x1 = 0.2006 | – | 1590.44
[2], x1 = 0.2485 | – | 1539.57
[2], x1 = 0.307 | – | 1478.88
[2], x1 = 0.3593 | – | 1426.19
[2], x1 = 0.4138 | – | 1372.46
[2], x1 = 0.4767 | – | 1312.32
[2], x1 = 0.5324 | – | 1260.38
[2], x1 = 0.5968 | – | 1201.95
[2], x1 = 0.6549 | – | 1150.66
[2], x1 = 0.721 | – | 1093.83
[2], x1 = 0.787 | – | 1038.79
[2], x1 = 0.8544 | – | 984.01
[2], x1 = 0.9302 | – | 924.33

CCCCOC(=O)CCC [butyl butanoate] + BrCCCBr
Conditions | excess molar enthalpy [kcal/mol] | mass density [kg/m3]
[1], x1 = 0.0478 | 0.0055 | –
[1], x1 = 0.1102 | 0.00932 | –
[1], x1 = 0.1831 | 0.0105 | –
[1], x1 = 0.2568 | 0.00765 | –
[1], x1 = 0.3257 | 0.000956 | –
[1], x1 = 0.3879 | -0.00789 | –
[1], x1 = 0.4528 | -0.0163 | –
[1], x1 = 0.5333 | -0.0217 | –
[1], x1 = 0.6324 | -0.0246 | –
[1], x1 = 0.7588 | -0.0225 | –
[1], x1 = 0.8755 | -0.0158 | –
[2], x1 = 0.079 | – | 1834.63
[2], x1 = 0.1205 | – | 1768.32
[2], x1 = 0.206 | – | 1641.3
[2], x1 = 0.2513 | – | 1578.66
[2], x1 = 0.3045 | – | 1509.31
[2], x1 = 0.356 | – | 1445.76
[2], x1 = 0.4085 | – | 1384.26
[2], x1 = 0.4703 | – | 1315.94
[2], x1 = 0.5404 | – | 1243.38
[2], x1 = 0.5989 | – | 1186.32
[2], x1 = 0.7409 | – | 1059.86
[2], x1 = 0.8162 | – | 998.93
[2], x1 = 0.8997 | – | 935.58
[2], x1 = 0.9428 | – | 904.65

BrCCBr [1,2-dibromoethane] + CCCCOC=O
Conditions | excess molar enthalpy, [1] [kcal/mol] | mass density, [2] [kg/m3]
x2 = 0.0489 | – | 2085.1
x2 = 0.0509 | 0.0098 | –
x2 = 0.0955 | – | 2008.94
x2 = 0.1197 | 0.0186 | –
x2 = 0.1401 | – | 1938.46
x2 = 0.1884 | – | 1864.18
x2 = 0.1992 | 0.027 | –
x2 = 0.2379 | – | 1790.7
x2 = 0.28 | 0.032 | –
x2 = 0.3095 | – | 1688.13
x2 = 0.3398 | – | 1646.07
x2 = 0.3511 | 0.0332 | –
x2 = 0.3993 | 0.0327 | 1565.68
x2 = 0.449 | 0.0315 | –
x2 = 0.4831 | 0.0299 | –
x2 = 0.5112 | – | 1422.24
x2 = 0.5504 | 0.027 | –
x2 = 0.5786 | – | 1340.18
x2 = 0.6334 | 0.022 | –
x2 = 0.641 | – | 1266.85
x2 = 0.7029 | – | 1196.55
x2 = 0.7275 | 0.016 | –
x2 = 0.7738 | – | 1118.89
x2 = 0.8087 | 0.0105 | –
x2 = 0.8358 | – | 1053.24
x2 = 0.9111 | 0.00406 | –
x2 = 0.9138 | – | 973.46

BrCCCBr [1,3-dibromopropane] + CCCCOC=O
Conditions | excess molar enthalpy [kcal/mol] | mass density [kg/m3]
[1], x2 = 0.0631 | 0.0155 | –
[1], x2 = 0.1489 | 0.0306 | –
[1], x2 = 0.2355 | 0.0397 | –
[1], x2 = 0.3208 | 0.0435 | –
[1], x2 = 0.3958 | 0.0428 | –
[1], x2 = 0.4589 | 0.0409 | –
[1], x2 = 0.5144 | 0.0378 | –
[1], x2 = 0.5498 | 0.0356 | –
[1], x2 = 0.5621 | 0.0344 | –
[1], x2 = 0.6372 | 0.0289 | –
[1], x2 = 0.7237 | 0.0227 | –
[1], x2 = 0.8208 | 0.0143 | –
[1], x2 = 0.9151 | 0.00693 | –
[2], x2 = 0.055 | – | 1904.29
[2], x2 = 0.1095 | – | 1839
[2], x2 = 0.1626 | – | 1776.37
[2], x2 = 0.2171 | – | 1712.74
[2], x2 = 0.273 | – | 1648.68
[2], x2 = 0.3252 | – | 1589.49
[2], x2 = 0.5003 | – | 1397.08
[2], x2 = 0.5617 | – | 1331.4
[2], x2 = 0.6186 | – | 1271.46
[2], x2 = 0.6866 | – | 1200.91
[2], x2 = 0.8026 | – | 1082.84
[2], x2 = 0.8655 | – | 1020.08
[2], x2 = 0.9344 | – | 952.37
